Patent US8809389B2, “Substituted alkynyl phenoxy compounds as new synergists in pesticidal compositions” (Endura S.p.A., priority 2009, dated 2014)

Columns and labels:
[1] = tested on: P450 enzymes (oxidases) of pollen beetle homogenate; assay: Oxidase assay: 7-ethoxycoumarin O-deethylation inhibition in pollen beetle homogenate; type: biochemical, Meligethes aeneus; conditions: 3 μl of 10 mM compound, enzyme plus acetone = 100
Description: The ability of the novel compositions comprising the synergists of Formula (I) to inhibit P450 enzymes, a major mechanism conferring resistance to xenobiotics, was measured using pollen beetle homogenate.
Approximately 50 non-sexed adult pollen beetle from each population were homogenised on ice in 1 ml 0.1 M sodium phosphate buffer, pH 7.6, containing, 1 mM EDTA, 1 mM DTT, 1 mM PTU, 1 mM PMSF and centrifuged at 10 000×g for 10 min. The resulting supernatant was used as the enzyme source.
The O-deethylation inhibition by compounds of Example 2 or 3 was measured using 7-ethoxycoumarin (7-EC) according to Ullrich and Weber (Ullrich V and Weber P, The O-dealkylation of 7-ethoxycoumarin by liver microsomes. Z Physiol Chem 353: 1171-1177 (1972)) and adapted to the microplate format as described by DeSousa (De Sousa G, Cuany A, Brun A, Amichot M, Rahmani R, Berge J B, A microfluorometric method for measuring ethoxycoumarin-O-deethylase activity on individual Drosophila melanogaster abdomens: interest for screening resistance in insect populations Analyt. Biochem 229: 86-91 (1995)). Briefly, 7-EC was dissolved in ethanol to make a 20 mM stock solution and diluted by the addition of 0.1 M, pH 7.8 sodium phosphate buffer to give a concentration of 0.5 mM. Fifty microliters of pollen beetle enzyme were added to separate wells of a microplate, followed by the addition of 3 μl 10 mM of either compounds of Example 2 or 3 or acetone only. After 10 min incubation in room temperature, 80 μl 0.5 mM 7-EC was added following by another 5 min at 30° C. The reaction initiated by the addition of 10 μl 9.6 mM NADPH in 0.1 M sodium phosphate, pH 7.8. Enzyme activity was measured in a Victor^2 1420 multilabel counter (Wallac, Milton Keynes, UK) for 60 min with readings taken every 5 min, using an excitation wavelength of 370 nm and an emission wavelength of 460 nm. All assays were performed in triplicate.
The ability of the composition comprising the compounds of Examples 2 and 3 to inhibit oxidases derived from the 3 different pollen beetle populations is presented in Table 7.

[2] = tested on: pollen beetle, Meligethes aeneus; assay: Discriminating dose bioassay: α-cypermethrin in mixture with synergist; type: in vivo; conditions: for % Mortality: 24 h
Description: Two pyrethroid resistant populations originating from two different areas in Poland ‘Rogalin'and lebork’ were collected in July 2008. A putative susceptible population, UK population, was also collected in July 2008 in Hertfordshire, UK. All populations were collected from oilseed rape contained adults only and were kept at room temperature before assays were performed.
Bioassays incorporating the compounds (Compound of Example 2 and Compound of Example 3) dissolved in acetone, were carried out using a diagnostic concentration of α-cypermethrin derived from the above full dose response bioassays in a mixture of 0.01 g L^−1 of the compounds. The concentration of α-cypermethrin used for the discriminating dose bioassays was 0.3 ppm α-cypermethrin for the two polish populations, Rogalin and Lebork and 0.03 ppm α-cypermethrin for UK population. Vials treated with the compounds only, dissolved in acetone and acetone only were used as controls. Ten to 15 replicates were used for each treatment depending on insect numbers within the population. Compounds concentrations chosen conferred no mortality in preliminary bioassays.
Treated vials including the pollen beetles were stored in constant environment facilities at 18±2° C. and 16L: 8D. All bioassays were scored at an endpoint of 24 h after exposure to the insecticide. Insects incapable of coordinated movement (after gentle touching with a pencil brush if necessary) were scored as dead.

CC#CCOc1cc2c(cc1CCC)OCO2 [Example 3, 5-(but-2-ynyloxy)-6-propyl-benzo[1.3]dioxole]
Inhibition of 7-ethoxycoumarin O-deethylation (%) ([1]; Lebork homogenate): −2.24% | Inhibition of 7-ethoxycoumarin O-deethylation (%) ([1]; Rogalin homogenate): 27.6% | Inhibition of 7-ethoxycoumarin O-deethylation (%) ([1]; UK population homogenate): 10.4% | % Mortality ([2]; Lebork, 0.3 ppm α-cypermethrin in mixture with 0.01 g L^−1 synergist): 86.53% | Mortality ([2]; Rogalin and Lebork, 0.3 ppm α-cypermethrin in mixture with 0.01 g L^−1 synergist): around 85% | % Mortality ([2]; Rogalin, 0.3 ppm α-cypermethrin in mixture with 0.01 g L^−1 synergist): 97.06% | % Mortality ([2]; UK population, 0.03 ppm α-cypermethrin in mixture with 0.01 g L^−1 synergist): 68.78% | Mortality with the compound only ([2]; synergist only, without α-cypermethrin (data not shown)): No mortality
